From patent US20020081684A1, “Method and nucleotide sequence for transforming microorganisms” (priority 1995, published 2002)

Experiments:
[1] = biological target: T1, L-malic acid carrier in S. pombe (Schizosaccharomyces pombe, UniProt P50537); conditions: Sousa et al. (1992); cited from earlier work
T1 construct: host or cells: S. pombe cells (per the assay title)
T1 sequence (P50537 1-438): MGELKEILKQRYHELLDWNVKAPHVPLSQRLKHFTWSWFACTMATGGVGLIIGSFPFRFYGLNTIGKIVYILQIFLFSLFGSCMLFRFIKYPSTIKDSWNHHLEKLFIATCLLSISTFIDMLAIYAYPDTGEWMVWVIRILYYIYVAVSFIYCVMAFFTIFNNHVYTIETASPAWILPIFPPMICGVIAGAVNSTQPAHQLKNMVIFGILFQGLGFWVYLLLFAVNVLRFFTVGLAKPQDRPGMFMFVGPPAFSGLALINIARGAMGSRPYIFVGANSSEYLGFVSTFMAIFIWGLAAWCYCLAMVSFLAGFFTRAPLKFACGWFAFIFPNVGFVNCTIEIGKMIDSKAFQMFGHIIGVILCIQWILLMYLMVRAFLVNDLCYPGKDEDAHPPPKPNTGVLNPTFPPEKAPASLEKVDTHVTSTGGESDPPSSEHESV

[2] = biological target: T2, S. pombe Mae1 permease (Schizosaccharomyces pombe, UniProt P50537); experiment: Transport assays for 14C-labelled L-malic, succinic, malonic and α-ketoglutaric acids in S. pombe wild-type, mae1- mutant and complemented mutant; type: cell-based; conditions: 14C-labelled acid, 0.1 M KCl pH 3.5, 30° C.
T2 construct: endogenous in cells; host or cells: S. pombe 972 leu1-32 h- (wild type); also the mae1- mutant complemented with the 3.4 kb SmaI genomic mae1 fragment in pRS315
T2 sequence (P50537 1-438): T1 sequence (P50537 1-438)
Description: Yeast cells in the logarithmic growth phase (OD of 1.2 at A595) were harvested and washed three times with 0.1 M KCI (pH 3.5). The cells were resuspended in 4 ml 0.1 M KCI (pH 3.5) and stored at 4° C. Transport assays were completed within 3 h. The cell suspensions were pre-incubated for 5 min in a shaker water bath at 30° C. at 100 rpm. Assays were initiated by adding 25 μl of ^14C-labelled L malate (45 μCi/μmol) (Amersham), 100 μl of succinic acid (42 μCi/μmol) (ICN), 100 μl malonic add (56.7 μCi/μmol) (Du Pont) or 100 μl a-ketoglutarate (51.8 μCi/μmol) (Du Pont). A 0.5-ml sample was withdrawn at 10, 20, 40, 60, and 120 sec intervals, rapidly filtered through 0.45 μm membranes (Mllipore Corporation, Bedford, Mass.), and immediately washed three times with 5 ml amounts of ice-cold 0.1 M KCI (pH 3.5). Filters containing the cells were oven-dried at 50° C. and placed in scintillation vials containing 5 ml of scintillation reaction mixture (Boehringer Mannheim, Mannheim, Germany). Pre-boiled (5 min) cells were used to determine non-specific binding of [^14C] malate, succinate, malonate and α-ketoglutarate to the yeast cells.

transport in the mae1-mutant complemented with the 3.4kb Sma1 fragment containing the mae1 gene [2] | Structure (SMILES) | inhibition of initial uptake rates of L-malic acid [1]
 | O=C(O)C[C@@H](O)C(=O)O [D-malic acid] | competitive inhibition
fully restored | O=C(O)C[C@H](O)C(=O)O [L-malic acid] | 
 | O=C(O)/C=C/C(=O)O [fumaric acid] | competitive inhibition
 | O=C(O)/C=C\C(=O)O [maleic acid] | competitive inhibition
fully restored | O=C(O)CC(=O)O [malonic acid] | competitive inhibition
 | O=C(O)CC(=O)C(=O)O [oxaloacetic acid] | competitive inhibition
fully restored | O=C(O)CCC(=O)O [succinic acid] | competitive inhibition
